In article doi:10.1101/2024.08.13.607785v1 (biorxiv, 2024):

Assays:
Parameters in all cases: species or system mixed lysate of K562, MV4-11, THP-1, NCI-H1155
[1] = molecular target: T1, Discoidin domain-containing receptor 2 ; DDR2 ; Q16832 (Homo sapiens, UniProt Q16832); settings: binder
T1 sequence (Q16832 1-855): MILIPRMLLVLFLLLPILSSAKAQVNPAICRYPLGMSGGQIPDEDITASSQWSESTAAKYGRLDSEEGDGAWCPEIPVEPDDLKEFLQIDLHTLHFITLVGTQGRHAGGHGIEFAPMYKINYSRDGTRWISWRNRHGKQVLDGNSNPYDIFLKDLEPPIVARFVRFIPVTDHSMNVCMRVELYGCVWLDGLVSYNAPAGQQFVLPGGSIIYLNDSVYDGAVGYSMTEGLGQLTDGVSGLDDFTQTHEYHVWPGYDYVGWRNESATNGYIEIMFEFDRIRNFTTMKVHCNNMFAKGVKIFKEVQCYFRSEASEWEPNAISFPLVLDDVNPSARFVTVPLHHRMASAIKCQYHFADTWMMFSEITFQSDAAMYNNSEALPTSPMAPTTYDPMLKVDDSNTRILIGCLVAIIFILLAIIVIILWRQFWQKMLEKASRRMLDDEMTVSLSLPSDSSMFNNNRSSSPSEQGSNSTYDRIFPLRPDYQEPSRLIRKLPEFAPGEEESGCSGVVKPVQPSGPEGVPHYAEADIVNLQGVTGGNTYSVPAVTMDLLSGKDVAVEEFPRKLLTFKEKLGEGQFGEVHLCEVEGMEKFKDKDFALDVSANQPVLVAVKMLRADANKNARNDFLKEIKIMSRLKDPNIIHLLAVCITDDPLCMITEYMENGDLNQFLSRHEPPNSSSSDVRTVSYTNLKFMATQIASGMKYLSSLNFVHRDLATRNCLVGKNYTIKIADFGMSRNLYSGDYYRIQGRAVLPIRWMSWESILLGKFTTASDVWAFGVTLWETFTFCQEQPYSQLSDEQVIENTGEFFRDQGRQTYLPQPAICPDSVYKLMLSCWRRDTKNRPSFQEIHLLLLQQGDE

[2] = molecular target: Mitogen-activated protein kinase kinase kinase 4 ; MAP3K4 ; Q9Y6R4 (Homo sapiens, UniProt Q9Y6R4); settings: binder
[3] = molecular target: Tyrosine-protein kinase FRK ; FRK ; P42685 (Homo sapiens, UniProt P42685); settings: DDA-MS residual binding; binder
[4] = molecular target: Tyrosine-protein kinase Fgr ; FGR ; P09769 (Homo sapiens, UniProt P09769); settings: binder
[5] = molecular target: Mitogen-activated protein kinase kinase kinase kinase 5 ; MAP4K5 ; Q9Y4K4 (Homo sapiens, UniProt Q9Y4K4); settings: DDA-MS residual binding; binder
[6] = molecular target: Epithelial discoidin domain-containing receptor 1 ; DDR1 ; Q08345 (Homo sapiens, UniProt Q08345); settings: binder
[7] = molecular target: LIM domain kinase 1 ; LIMK1 ; P53667 (Homo sapiens, UniProt P53667); settings: DDA-MS residual binding; binder
[8] = molecular target: Serine/threonine-protein kinase SIK2 ; SIK2 ; Q9H0K1 (Homo sapiens, UniProt Q9H0K1); settings: DDA-MS residual binding; binder
[9] = molecular target: Receptor-interacting serine/threonine-protein kinase 2 ; RIPK2 ; O43353 (Homo sapiens, UniProt O43353); settings: DDA-MS residual binding; binder
Receptor-interacting serine/threonine-protein kinase 2 ; RIPK2 ; O43353, sequence (O43353 whole entry, one chain of several): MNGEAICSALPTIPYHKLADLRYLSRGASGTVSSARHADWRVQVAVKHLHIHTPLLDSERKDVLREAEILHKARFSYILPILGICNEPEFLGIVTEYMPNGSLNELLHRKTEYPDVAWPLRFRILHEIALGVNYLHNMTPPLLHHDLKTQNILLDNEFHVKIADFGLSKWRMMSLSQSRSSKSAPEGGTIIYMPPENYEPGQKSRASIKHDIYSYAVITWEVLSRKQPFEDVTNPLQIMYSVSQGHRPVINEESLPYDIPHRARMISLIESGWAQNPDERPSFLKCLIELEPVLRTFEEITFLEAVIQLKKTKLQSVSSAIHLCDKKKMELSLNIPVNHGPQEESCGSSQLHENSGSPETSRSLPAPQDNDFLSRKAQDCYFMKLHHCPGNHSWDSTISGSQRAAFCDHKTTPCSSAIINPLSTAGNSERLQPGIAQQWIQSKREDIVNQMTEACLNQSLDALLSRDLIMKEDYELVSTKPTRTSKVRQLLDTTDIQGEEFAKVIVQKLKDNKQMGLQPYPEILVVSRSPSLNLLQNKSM

Mitogen-activated protein kinase kinase kinase 4 ; MAP3K4 ; Q9Y6R4, sequence (Q9Y6R4 whole entry): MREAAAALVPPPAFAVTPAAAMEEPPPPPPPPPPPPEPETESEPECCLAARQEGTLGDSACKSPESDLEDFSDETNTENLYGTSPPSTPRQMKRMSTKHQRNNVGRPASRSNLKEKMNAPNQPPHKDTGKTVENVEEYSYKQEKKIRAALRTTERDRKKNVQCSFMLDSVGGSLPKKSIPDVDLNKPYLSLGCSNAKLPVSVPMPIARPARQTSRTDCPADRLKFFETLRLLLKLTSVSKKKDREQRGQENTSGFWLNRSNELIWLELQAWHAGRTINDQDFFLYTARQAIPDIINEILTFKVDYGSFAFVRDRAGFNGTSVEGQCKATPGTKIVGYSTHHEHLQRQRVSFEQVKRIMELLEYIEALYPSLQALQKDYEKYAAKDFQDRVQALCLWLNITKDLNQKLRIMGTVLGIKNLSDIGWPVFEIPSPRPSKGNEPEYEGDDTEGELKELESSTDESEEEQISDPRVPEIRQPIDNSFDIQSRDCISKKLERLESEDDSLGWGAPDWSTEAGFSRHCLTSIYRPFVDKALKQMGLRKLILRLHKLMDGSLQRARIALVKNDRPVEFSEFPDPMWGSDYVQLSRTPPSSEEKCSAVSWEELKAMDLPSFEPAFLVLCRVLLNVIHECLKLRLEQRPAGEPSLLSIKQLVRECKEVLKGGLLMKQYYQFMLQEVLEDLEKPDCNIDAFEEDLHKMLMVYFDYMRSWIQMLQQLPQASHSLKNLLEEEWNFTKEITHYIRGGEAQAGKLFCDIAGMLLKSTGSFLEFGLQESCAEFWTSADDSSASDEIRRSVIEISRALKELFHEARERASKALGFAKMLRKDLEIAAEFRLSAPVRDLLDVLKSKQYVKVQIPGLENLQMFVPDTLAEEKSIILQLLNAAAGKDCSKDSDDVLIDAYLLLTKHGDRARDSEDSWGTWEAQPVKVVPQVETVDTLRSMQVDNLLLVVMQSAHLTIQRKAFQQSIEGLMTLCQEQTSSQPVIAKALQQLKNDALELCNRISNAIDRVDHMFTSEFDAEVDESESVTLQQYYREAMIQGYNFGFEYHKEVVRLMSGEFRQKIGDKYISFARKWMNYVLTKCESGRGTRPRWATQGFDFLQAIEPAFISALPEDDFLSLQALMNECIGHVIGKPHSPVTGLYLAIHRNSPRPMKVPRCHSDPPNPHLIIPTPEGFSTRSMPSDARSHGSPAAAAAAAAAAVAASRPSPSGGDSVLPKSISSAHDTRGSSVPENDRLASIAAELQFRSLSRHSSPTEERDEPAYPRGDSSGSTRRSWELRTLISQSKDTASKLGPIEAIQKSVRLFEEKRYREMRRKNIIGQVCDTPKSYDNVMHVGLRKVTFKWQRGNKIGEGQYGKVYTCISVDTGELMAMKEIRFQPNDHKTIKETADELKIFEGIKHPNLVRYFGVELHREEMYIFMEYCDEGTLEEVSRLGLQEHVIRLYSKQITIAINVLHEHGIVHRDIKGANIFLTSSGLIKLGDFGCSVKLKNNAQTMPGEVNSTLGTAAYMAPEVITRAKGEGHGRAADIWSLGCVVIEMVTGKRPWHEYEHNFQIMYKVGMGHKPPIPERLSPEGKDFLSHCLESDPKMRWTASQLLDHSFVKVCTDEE
Epithelial discoidin domain-containing receptor 1 ; DDR1 ; Q08345, sequence (Q08345 whole entry, the tested form may be a part): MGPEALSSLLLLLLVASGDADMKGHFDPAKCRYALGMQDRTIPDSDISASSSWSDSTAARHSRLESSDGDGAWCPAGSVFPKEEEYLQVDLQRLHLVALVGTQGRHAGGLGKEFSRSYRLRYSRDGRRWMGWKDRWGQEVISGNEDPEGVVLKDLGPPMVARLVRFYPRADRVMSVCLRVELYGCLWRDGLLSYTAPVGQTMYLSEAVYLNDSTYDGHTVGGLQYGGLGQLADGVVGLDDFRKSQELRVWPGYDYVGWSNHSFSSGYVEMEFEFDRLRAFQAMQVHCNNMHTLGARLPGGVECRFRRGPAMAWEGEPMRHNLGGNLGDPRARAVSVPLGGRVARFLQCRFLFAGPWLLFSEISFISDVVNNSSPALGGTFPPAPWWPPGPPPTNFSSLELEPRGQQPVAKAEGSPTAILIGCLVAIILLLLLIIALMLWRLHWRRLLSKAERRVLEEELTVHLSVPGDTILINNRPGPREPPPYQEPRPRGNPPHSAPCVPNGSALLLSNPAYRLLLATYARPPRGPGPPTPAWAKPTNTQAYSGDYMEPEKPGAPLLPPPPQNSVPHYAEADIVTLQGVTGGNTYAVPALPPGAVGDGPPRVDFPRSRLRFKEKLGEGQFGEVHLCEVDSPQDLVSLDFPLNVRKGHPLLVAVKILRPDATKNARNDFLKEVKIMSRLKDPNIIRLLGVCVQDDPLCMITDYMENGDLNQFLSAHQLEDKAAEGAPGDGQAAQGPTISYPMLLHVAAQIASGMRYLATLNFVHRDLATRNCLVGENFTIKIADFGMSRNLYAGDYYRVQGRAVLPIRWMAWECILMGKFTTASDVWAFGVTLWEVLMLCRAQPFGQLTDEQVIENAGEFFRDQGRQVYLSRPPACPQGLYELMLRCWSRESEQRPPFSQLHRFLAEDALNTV
Serine/threonine-protein kinase SIK2 ; SIK2 ; Q9H0K1, sequence (Q9H0K1 whole entry, one chain of several): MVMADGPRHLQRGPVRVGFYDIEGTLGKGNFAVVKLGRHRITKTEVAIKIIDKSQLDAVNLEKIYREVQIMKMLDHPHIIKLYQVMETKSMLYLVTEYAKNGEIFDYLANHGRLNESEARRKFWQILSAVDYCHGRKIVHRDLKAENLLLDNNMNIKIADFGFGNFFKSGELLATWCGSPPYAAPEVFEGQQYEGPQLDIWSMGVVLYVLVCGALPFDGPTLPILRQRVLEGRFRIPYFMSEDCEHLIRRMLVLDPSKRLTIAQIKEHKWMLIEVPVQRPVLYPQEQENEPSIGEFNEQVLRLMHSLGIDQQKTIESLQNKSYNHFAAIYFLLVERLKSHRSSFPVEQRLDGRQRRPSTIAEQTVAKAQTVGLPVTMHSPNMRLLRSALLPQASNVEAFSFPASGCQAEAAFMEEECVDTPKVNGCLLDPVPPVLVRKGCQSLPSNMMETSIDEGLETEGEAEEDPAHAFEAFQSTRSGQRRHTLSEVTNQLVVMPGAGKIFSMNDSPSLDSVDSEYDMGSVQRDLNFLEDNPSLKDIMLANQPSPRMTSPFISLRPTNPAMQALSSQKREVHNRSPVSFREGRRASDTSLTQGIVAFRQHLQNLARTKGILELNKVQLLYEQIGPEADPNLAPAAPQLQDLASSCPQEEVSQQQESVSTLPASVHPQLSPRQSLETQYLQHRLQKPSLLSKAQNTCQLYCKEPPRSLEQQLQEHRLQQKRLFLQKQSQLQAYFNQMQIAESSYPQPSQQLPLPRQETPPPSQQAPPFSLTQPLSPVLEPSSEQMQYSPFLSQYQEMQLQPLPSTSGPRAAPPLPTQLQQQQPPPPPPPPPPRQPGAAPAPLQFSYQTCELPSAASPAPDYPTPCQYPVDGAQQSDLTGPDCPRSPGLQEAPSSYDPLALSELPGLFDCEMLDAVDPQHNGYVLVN
Tyrosine-protein kinase FRK ; FRK ; P42685, sequence (P42685 whole entry): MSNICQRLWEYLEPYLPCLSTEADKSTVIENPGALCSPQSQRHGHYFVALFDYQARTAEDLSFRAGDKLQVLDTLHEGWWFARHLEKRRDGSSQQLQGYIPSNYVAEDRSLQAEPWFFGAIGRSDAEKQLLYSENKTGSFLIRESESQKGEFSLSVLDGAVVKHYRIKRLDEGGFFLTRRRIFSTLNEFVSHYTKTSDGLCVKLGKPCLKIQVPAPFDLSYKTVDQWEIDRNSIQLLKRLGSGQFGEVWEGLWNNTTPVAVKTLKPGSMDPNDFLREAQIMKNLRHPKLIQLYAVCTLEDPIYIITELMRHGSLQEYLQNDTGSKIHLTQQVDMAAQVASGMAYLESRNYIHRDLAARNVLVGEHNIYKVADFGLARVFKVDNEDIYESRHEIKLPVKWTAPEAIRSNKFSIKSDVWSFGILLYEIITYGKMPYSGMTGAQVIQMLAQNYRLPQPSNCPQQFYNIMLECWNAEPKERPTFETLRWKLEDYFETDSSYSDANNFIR
Tyrosine-protein kinase Fgr ; FGR ; P09769, sequence (P09769 whole entry): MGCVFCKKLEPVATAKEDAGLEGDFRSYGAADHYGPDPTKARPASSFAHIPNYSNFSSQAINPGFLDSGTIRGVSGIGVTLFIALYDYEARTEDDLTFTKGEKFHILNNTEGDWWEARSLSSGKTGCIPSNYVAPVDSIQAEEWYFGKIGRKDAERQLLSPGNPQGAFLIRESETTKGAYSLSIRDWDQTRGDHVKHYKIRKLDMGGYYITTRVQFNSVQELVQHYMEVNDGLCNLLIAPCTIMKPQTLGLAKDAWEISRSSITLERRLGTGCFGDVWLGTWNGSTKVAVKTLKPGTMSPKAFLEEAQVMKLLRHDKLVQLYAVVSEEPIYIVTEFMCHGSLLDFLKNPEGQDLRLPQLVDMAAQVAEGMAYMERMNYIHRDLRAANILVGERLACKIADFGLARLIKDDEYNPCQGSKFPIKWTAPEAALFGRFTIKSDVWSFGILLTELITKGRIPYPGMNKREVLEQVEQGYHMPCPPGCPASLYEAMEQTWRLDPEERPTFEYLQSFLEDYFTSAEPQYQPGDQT

DDA-MS / % Intensity (30 µM/DMSO) [1]: 10.23% | DDA-MS / % Intensity (30 µM/DMSO) [2]: 9.795% | DDA-MS / % Intensity (30 µM/DMSO) [3]: 5.626% | DDA-MS / % Intensity (30 µM/DMSO) [4]: 3.884% | DDA-MS / % Intensity (30 µM/DMSO) [5]: 24.77% | DDA-MS / % Intensity (30 µM/DMSO) [6]: 4.526% | DDA-MS / % Intensity (30 µM/DMSO) [7]: 23.79% | DDA-MS / % Intensity (30 µM/DMSO) [8]: 1.826% | DDA-MS / % Intensity (30 µM/DMSO) [9]: 1.02%
SMILES: Cc1nc(Nc2ncc(C(=O)Nc3c(C)cccc3Cl)s2)cc(N2CCN(CCO)CC2)n1 [dasatinib]
